What was measured:
WalKc(PH) = WalKc(PH) (Bacillus anthracis, UniProt A0A6H3AEB6)
WalKc(H) = WalKc(H) (Bacillus anthracis, UniProt A0A6H3AEB6)
WalKc = WalKc (Bacillus anthracis, UniProt A0A6H3AEB6)
WalR = WalR (Bacillus anthracis, UniProt A0A2P0HLU7)
WalR, sequence (A0A2P0HLU7 1-235): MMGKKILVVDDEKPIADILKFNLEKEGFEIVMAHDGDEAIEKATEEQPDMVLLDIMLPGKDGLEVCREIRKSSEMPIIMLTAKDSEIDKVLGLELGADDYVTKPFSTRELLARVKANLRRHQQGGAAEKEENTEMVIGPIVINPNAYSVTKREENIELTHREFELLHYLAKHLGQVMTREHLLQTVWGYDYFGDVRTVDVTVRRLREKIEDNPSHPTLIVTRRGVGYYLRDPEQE

WalKc, sequence (A0A6H3AEB6 210-613 limits assumed): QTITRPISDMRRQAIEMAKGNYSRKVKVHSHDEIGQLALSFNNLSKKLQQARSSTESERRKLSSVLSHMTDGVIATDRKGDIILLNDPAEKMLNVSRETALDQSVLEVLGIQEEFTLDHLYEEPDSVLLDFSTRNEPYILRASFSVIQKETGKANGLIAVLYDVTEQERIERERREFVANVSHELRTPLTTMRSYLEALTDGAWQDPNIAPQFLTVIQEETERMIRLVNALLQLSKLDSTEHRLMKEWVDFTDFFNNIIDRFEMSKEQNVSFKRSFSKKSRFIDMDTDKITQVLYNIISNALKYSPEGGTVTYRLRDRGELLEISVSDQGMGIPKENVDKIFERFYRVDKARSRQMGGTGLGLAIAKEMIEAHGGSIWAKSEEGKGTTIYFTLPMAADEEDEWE
WalKc(PH), sequence (A0A6H3AEB6 263-613 limits assumed): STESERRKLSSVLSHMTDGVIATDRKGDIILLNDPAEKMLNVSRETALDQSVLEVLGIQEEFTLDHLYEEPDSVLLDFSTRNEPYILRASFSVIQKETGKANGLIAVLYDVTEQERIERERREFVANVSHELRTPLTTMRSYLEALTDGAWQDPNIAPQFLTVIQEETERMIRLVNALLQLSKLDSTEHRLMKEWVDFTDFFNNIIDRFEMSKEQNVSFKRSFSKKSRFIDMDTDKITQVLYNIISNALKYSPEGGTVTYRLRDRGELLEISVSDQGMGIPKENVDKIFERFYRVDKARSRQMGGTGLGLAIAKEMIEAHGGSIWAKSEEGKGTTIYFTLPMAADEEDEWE
WalKc(H), sequence (A0A6H3AEB6 380-613 limits assumed): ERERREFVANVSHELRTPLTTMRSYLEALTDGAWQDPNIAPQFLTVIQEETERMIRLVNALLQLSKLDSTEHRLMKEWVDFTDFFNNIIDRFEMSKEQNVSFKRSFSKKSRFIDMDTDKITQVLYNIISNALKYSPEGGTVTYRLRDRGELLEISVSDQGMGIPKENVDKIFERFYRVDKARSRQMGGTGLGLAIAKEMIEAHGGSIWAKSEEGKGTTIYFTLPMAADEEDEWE

| SMILES | autophosphorylation, 32P SDS-PAGE autoradiography (WalKc(PH)) | autophosphorylation, 32P SDS-PAGE autoradiography (WalKc(H)) | autophosphorylation, 32P SDS-PAGE autoradiography (WalKc) | phosphorylation of WalR, native PAGE with coomassie staining (WalR) |
| --- | --- | --- | --- | --- |
| Nc1ncnc2c1ncn2[C@@H]1O[C@H](COP(=O)(O)OP(=O)(O)OP(=O)(O)O)[C@@H](O)[C@H]1O [ATP] | Both, WalKc(PH) and WalKc(H), appeared to be more efficient than WalKc in autophosphorylation | Both, WalKc(PH) and WalKc(H), appeared to be more efficient than WalKc in autophosphorylation | When WalKc was incubated with labeled ATP mixture, autophosphorylation could be detected | – |
| NC(=O)OP(=O)(O)O [carbamoyl phosphate] | – | – | – | Carbamoyl phosphate mediated phosphorylation of WalR was also found to be inefficient |
